Experimental data taken from patent US20240309090A1, “MODULATION OF ANDROGEN SIGNALING TO INNATE IMMUNE KILLING OF PROSTATE CANCER” (Brown University, priority 2023, published 2024).

Tests used:
[1] = tested on: PC3; assay: Co-culture of GFP-expressing PC3 with patient-derived NK cells; type: cell-based, human; details: GFP PC3, 1:1, 24 h; monalizumab in combination with enza and daro
From the text: To validate an additive effect of ARi and monalizumab enhancing NK cell cytotoxicity, we performed a co-culture assay with GFP-labeled PCa cell lines (including ARi-sensitive LNCaP and ARi-resistant PC3) and patient-derived NK cells. The NK cells were negatively selected from whole blood from patients with metastatic prostate cancer before initiation of androgen deprivation therapy. The addition of enzalutamide or darolutamide enhanced the cytotoxicity of NK cells, and the combination of ARi with monalizumab potentiated immune killing (FIG. 15C-D).
Prostate cancer cell lines were dyed with the blue CMAC live-cell dye (Thermo Fisher Scientific #C2110, per manufacturer protocol). Blue-fluorescent cancer cells were plated at a density of 10,000 cells per well of a 48-well plate. NK-92 cells were dyed with green CMFDA (Cayman Chemical Company #19583, per manufacturer protocol). Green-fluorescent NK-92 cells were added to the blue-fluorescent cancer cells at a 1:1 ratio. Enzalutamide (10 μM), darolutamide (20 μM), and 1 μM ethidium homodimer (EthD-1) were added at the same time as the NK cells. After 24 hours of co-culture, images of live cancer cells, live NK cells, and dead cells were taken using a fluorescent microscope. The co-culture experiments were run with internal control conditions and as a single treatment. Normalization was performed after analysis to take baseline death conditions into each experiment run. To optimize the high output of these experiments, a subset of co-cultures were performed using the ImageXpress® Micro Confocal High-Content Imaging. This analysis maintained the experiment conditions, drug concentrations, and the dyeing process. When GFP-labeled tumor cells were used for culture assays, they were added in a 1:1 ratio. Cell adhered over 24 h, and when patient-derived NK cells were added, a control well was trypsinized, and cells resuspended and counted to adjust a 1:1 ratio before treatment addition. The experiments with blocking antibodies were performed using the ImageXpress system. TRAIL blocking ab was purchased from Santa Cruz TRAIL Antibody (RIK-2): sc-56246, and IFN gamma blocking Monoclonal Antibody (NIB42, #6-7318-81) was purchased from Thermo Fisher. The blocking mAb was added when NK cells were combined with tumor cells.
NK cells were isolated from patients harboring metastatic castration-sensitive prostate cancer using the MojoSort™ Human NK Cell Isolation Kit (#480053). Patients signed informed consent for IRB-approved research protocol number 2055-13, allowing the collection of peripheral blood samples. […] The untouched NK cells (CD56+, CD3−) were collected, and the purity of isolation was determined by flow cytometry using anti-CD56 (BioLegend 362503). […]

[2] = tested on: 22Rv1 cell line; assay: Flow cytometry of HLA-E / PD-L1 surface expression on 22Rv1; type: cell-based; details: for HLA-E surface expression, mean fluorescence intensity (MFI): 22Rv1, enza 15 μM, daro 20 μM, 48 h; for surface levels of HLA-E / surface levels of PD-L1: Example 2, 22Rv1
Method: The effect of ARi on the NKG2A ligand, HLA-E, was investigated by flow cytometry on PCa cells treated with enza and daro.
PCa cells were plated at a density of 3×10^5 cells per well of a 6-well plate and adhered overnight. […] After treatment, cells were trypsinized, stained, and incubated (Cell Staining Buffer SouthernBiotech #0225-01S) with the corresponding antibody for 45-60 min at 4° C. Viability dye was added with each run. NK-92 cells and patient-derived cells were stained similarly. Markers used for experiments included: Thermofisher HLA-E Monoclonal Antibody (3D12HLA-E), Alexa Fluor™ 488, eBioscience™, CD274 (PD-L1, B7-H1) Monoclonal Antibody (MIH1), eFluor™ 450, eBioscience™, Cell Signaling PD-1 (D4W2J) XPR Rabbit mAb, SYTOX™ Orange Dead Cell Stain, for flow cytometry, BioLegend APC anti-human CD159a (NKG2A) Antibody #375108, BioLegend APC anti-human CD69 Antibody #310909, BioLegend Alexa Fluor® 647 anti-human CD137 (4-1BB) [4B4-1] #309823. For staining of the patient-derived PBMCs and subsequent NK cell characterization, the following antibodies were used: BioLegend Anti-Perforin Mouse Monoclonal Antibody (PerCP Cy5.50, clone: dG9) #308113, BioLegend Anti-Granzyme B Mouse Monoclonal Antibody (FITC, clone: GB11) #515403, BioLegend Anti-CD56 Mouse Monoclonal Antibody (Alexa Fluor® 700, clone: 5.1H1) #362521, and BioLegend (PE anti-human CD45 Antibody) #304008.
The effect of androgen pathway inhibitors in the expression of HLA-E, a negative and key negative modulator of NK cell function, was also performed using Flow Cytometry. PD-L1 expression levels were also measured. In advance, The NK cell immune checkpoint inhibitor monalizumab (targeting NKG2A and its ligand, HLA-E) was also combined with ARi.

Row | SMILES | killing of PCa cells by patient-derived NK cells (in words) [1] | HLA-E surface expression, mean fluorescence intensity (MFI) [2] | surface levels of HLA-E [2] | surface levels of PD-L1 [2]
1 | CC(O)c1cc(C(=O)N[C@@H](C)Cn2ccc(-c3ccc(C#N)c(Cl)c3)n2)n[nH]1 (some centres unmarked) [darolutamide] | enhanced | 30.5±2.69×10^3 | did not change significantly | did not change significantly
2 | CNC(=O)c1ccc(N2C(=S)N(c3ccc(C#N)c(C(F)(F)F)c3)C(=O)C2(C)C)cc1F [enzalutamide] | enhanced | 41.14+7.6×10^3 | did not change significantly | did not change significantly
